Our source for the phytotoxic effect values is patent US4725683A, “Fluorophenoxyphenoxypropionates and derivatives thereof” (The Dow Chemical Company, priority 1985, dated 1988).

This assay concerns yellow nutsedge. The assay is described as follows: Preemergent activity. The format is in vivo. As to conditions: 0.28 kgs/hectare, seeds. As for the experimental part:
In a representative operation, 2-[4-(2-fluoro-4-trifluoromethylphenoxy)phenoxy]propionic acid methyl ester, to be utilized in a series of tests, is dissolved in acetone to one half of the final volume (twice the final concentration) to be used and the acetone solution in each case is admixed with an equal volume of water containing 0.1 percent by weight of Tween-20 surface active material (Tween-20 is a trademark of Atlas Chemical Company). The composition, generally in the nature of an emulsion, was employed to treat separate respective seed beds of sandy loam soil of good nutrient content wherein each seed bed contained separate groups of good viable seeds, each group being of one of a known plant species. The various beds were positioned side by side and exposed to substantially identical conditions of temperature and light. Each bed was maintained so as to prevent any interaction with the test compound in different seed beds. Each seed bed was treated with the composition as a spray employing conventional spraying equipment to deposit a predetermined amount of the compound uniformly throughout the surface of the bed. Another seed bed was treated only with the acetone-Tween-20 water mixture with no chemical added to serve as a control. After treatment, the seed beds were maintained for two weeks under greenhouse conditions conducive for good plant growth and watered as necessary. Control refers to the reduction in growth of the test species in the presence of the test chemical relative to the observed growth of the same species in the absence of the test chemical.
Substantially the same procedures described in Example C were repeated using as the active ingredients

Regarding `COC(=O)C(C)Oc1ccc(Oc2ccc(C(F)(F)F)cc2F)cc1` (stereo not shown) [2-[4-(2-fluoro-4-trifluoromethylphenoxy)phenoxy]propionic acid methyl ester], the phytotoxic effect entry is “inactive”.
